Results from patent publication US11939307B2, “Phenylmethyl-piperazine derivatives and antiviral uses thereof” (INSTITUTE OF MEDICINAL BIOTECHNOLOGY, CHINESE ACADEMY OF …, priority 2019, dated 2024).
Read-outs that look alike come from different tables or passages of the source.

Tested on: HCV
Assay: Assay of anti-HCV activity in HCV-infected Huh7.5 cells (intracellular HCV RNA by one-step quantitative RT-PCR)
Assay type: cell-based
Conditions: Hepatitis C virus, read-out: inhibitory activities (inhibitory levels of the compounds against HCV replication)
Method: 100 μL Huh7.5 cells were seeded at a density of 1×10^5/mL in a 96-well cell culture plate and incubated in an incubator at 37° C., 5% CO2 and saturated humidity for 6 hrs. Then, while infecting Huh7.5 cells with viral solution containing HCV virus particles, the compounds of the present invention (including all specific compounds listed herein) were added at a concentration of 1 μM, respectively. After continuing incubation for 96 hrs, the total intracellular RNA was extracted separately, and the content of intracellular HCV RNA was measured by one-step quantitative RT-PCR, compared with the RNA level of the viral control, and the inhibition rate of the compounds against HCV was calculated.

[1] = compound at 1 μM, Huh7.5 cells infected with HCV, 96 hrs, intracellular HCV RNA vs viral control

SMILES	inhibition at 1 µM [1] [%]	inhibition at 1 µM (Huh7.5, 96 h) [%]
CN1CCCN(c2ccc(C(F)(F)F)c(CN3CCN(C(c4ccc(Cl)cc4)c4ccccn4)CC3)c2)CC1 (centres unmarked) [Compound 56, 1-(3-((4-((4-chlorophenyl)(pyridin-2-yl)methyl)piperazin-1-yl)methyl)-4-(trifluoromethyl)phenyl)-4-methyl-1,4-diazepane]	50 to 75	–
CN1CCCN(c2ccc(C(F)(F)F)c(CN3CCN(C(c4ccccc4)c4ccccn4)CC3)c2)CC1 (centres unmarked) [Compound 57, 1-methyl-4-(3-((4-(phenyl(pyridin-2-yl)methyl)piperazin-1-yl)methyl)-4-(trifluoromethyl)phenyl)-1,4-diazepane]	50 to 75	–
COc1ccc(C(c2ccc(OC)cc2)N2CCN(Cc3cc(N(C)CCN(C)C)ccc3C(F)(F)F)CC2)cc1 [Compound 58, N^1-(3-((4-(bis(4-methoxyphenyl)methyl)piperazin-1-yl)methyl)-4-(trifluoromethyl)phenyl)-N^1,N^2,N^2-trimethylethan-1,2-diamine]	> 75	–
CCCN(CCN(C)C)c1ccc(C(F)(F)F)c(CN2CCN(C(c3ccc(Cl)cc3)c3ccc(Cl)cc3)CC2)c1 [Compound 59, N^1-(3-((4-(bis(4-chlorophenyl)methyl)piperazin-1-yl)methyl)-4-(trifluoromethyl)phenyl)-N^2,N^2-dimethyl-N^1-propylethan-1,2-diamine]	> 75	–
CC1CN(C(c2ccc(F)cc2)c2ccc(F)cc2)CCN1Cc1cc(N2CCCN(C)CC2)ccc1C(F)(F)F (centres unmarked) [Compound 60, 1-(3-((4-(bis(4-fluorophenyl)methyl)-2-methylpiperazin-1-yl)methyl)-4-(trifluoromethyl)phenyl)-4-methyl-1,4-diazepane]	> 75	–
CC1CN(C(c2ccc(Cl)cc2)c2ccc(Cl)cc2)CCN1Cc1cc(N2CCCN(C)CC2)ccc1C(F)(F)F (centres unmarked) [Compound 61, 1-(3-((4-(bis(4-chlorophenyl)methyl)-2-methylpiperazin-1-yl)methyl)-4-(trifluoromethyl)phenyl)-4-methyl-1,4-diazepane]	> 75	–
CN(CC1CCCN1C)c1ccc(C(F)(F)F)c(CN2CCN(C(c3ccc(Cl)cc3)c3ccc(Cl)cc3)CC2)c1 (centres unmarked) [Compound 62, 3-((4-(bis(4-chlorophenyl)methyl)piperazin-1-yl)methyl)-N-methyl-N-((1-methylpyrrolidin-2-yl)methyl)-4-(trifluoromethyl)aniline]	> 75	–
CN(CCN1CCCC1)c1ccc(C(F)(F)F)c(CN2CCN(C(c3ccc(Cl)cc3)c3ccc(Cl)cc3)CC2)c1 [Compound 63, 3-((4-(bis(4-chlorophenyl)methyl)piperazin-1-yl)methyl)-N-methyl-N-(2-(pyrrolidin-1-yl)ethyl)-4-(trifluoromethyl)aniline]	> 75	–
CN(CCN1CC1)c1ccc(C(F)(F)F)c(CN2CCN(C(c3ccc(Cl)cc3)c3ccc(Cl)cc3)CC2)c1 [Compound 64, N-(2-(aziridin-1-yl)ethyl)-3-((4-(bis(4-chlorophenyl)methyl)piperazin-1-yl)methyl)-N-methyl-4-(trifluoromethyl)aniline]	–	> 75
CCN1CCCN(c2ccc(C(F)(F)F)c(CN3CCN(C(c4ccccn4)c4ccccn4)CC3)c2)CC1 [Compound 65, 1-(3-((4-(di(pyridin-2-yl)methyl)piperazin-1-yl)methyl)-4-(trifluoromethyl)phenyl)-4-ethyl-1,4-diazepane]	50 to 75	–
CN(C)CCN(C)c1ccc(C(F)(F)F)c(CN2CCN(C(c3ccc(F)cc3)c3ccc(F)cc3)CC2)c1 [Compound 66, N^1-(3-((4-(bis(4-fluorophenyl)methyl)piperazin-1-yl)methyl)-4-(trifluoromethyl)phenyl)-N^1,N^2,N^2-trimethylethan-1,2-diamine]	> 75	–
CN(C)C1CCCN(c2ccc(C(F)(F)F)c(CN3CCN(C(c4ccc(Cl)cc4)c4ccc(Cl)cc4)CC3)c2)C1 (centres unmarked) [Compound 67, 1-(3-((4-(bis(4-chlorophenyl)methyl)piperazin-1-yl)methyl)-4-(trifluoromethyl)phenyl)-N,N-dimethylpiperidin-3-amine]	> 75	–
CN1CCN(c2ccc(C(F)(F)F)c(CN3CCN(C(c4ccc(Br)cc4)c4ccc(Br)cc4)CC3)c2)CC1 [Compound 68, 1-(bis(4-bromophenyl)methyl)-4-(5-(4-methylpiperazin-1-yl)-2-(trifluoromethyl)benzyl)piperazine]	> 75	–
CN(C)C1CCN(c2ccc(C(F)(F)F)c(CN3CCN(C(c4ccc(F)cc4)c4ccc(F)cc4)CC3)c2)CC1 [Compound 69, 1-(3-((4-(bis(4-fluorophenyl)methyl)piperazin-1-yl)methyl)-4-(trifluoromethyl)phenyl)-N,N-dimethylpiperidin-4-amine]	> 75	–
CCCN(C)CCN(C)c1ccc(C(F)(F)F)c(CN2CCN(C(c3ccc(Cl)cc3)c3ccc(Cl)cc3)CC2)c1 [Compound 70, N^1-(3-((4-(bis(4-chlorophenyl)methyl)piperazin-1-yl)methyl)-4-(trifluoromethyl)phenyl)-N^1,N^2-dimethyl-N^2-propylethan-1,2-diamine]	> 75	–
CN(C)CCN(C)CCN(C)c1ccc(C(F)(F)F)c(CN2CCN(C(c3ccc(F)cc3)c3ccc(F)cc3)CC2)c1 [Compound 71, N^1-(3-((4-(bis(4-fluorophenyl)methyl)piperazin-1-yl)methyl)-4-(trifluoromethyl)phenyl)-N^2-(2-(dimethylamino)ethyl)-N^1,N^2-dimethylethan-1,2-diamine]	> 75	–
CN(C)CCN(C)c1ccc(C(F)(F)F)c(CN2CCC(C(c3ccc(Cl)cc3)c3ccc(Cl)cc3)CC2)c1 [Compound 72, N^1-(3-((4-(bis(4-chlorophenyl)methyl)piperidin-1-yl)methyl)-4-(trifluoromethyl)phenyl)-N^1,N^2,N^2-trimethylethan-1,2-diamine]	> 75	–
CN(C)CCN(C)c1ccc(C(F)(F)F)c(CN2CCC(C(c3ccc(Br)cc3)c3ccc(Br)cc3)CC2)c1 [Compound 73, N^1-(3-((4-(bis(4-bromophenyl)methyl)piperidin-1-yl)methyl)-4-(trifluoromethyl)phenyl)-N^1,N^2,N^2-trimethylethan-1,2-diamine]	> 75	–
CN(C)CCN(C)c1ccc(C#N)c(CN2CCN(C(c3ccc(Cl)cc3)c3ccc(Cl)cc3)CC2)c1 [Compound 74, 2-((4-(bis(4-chlorophenyl)methyl)piperazin-1-yl)methyl)-4-((2-(dimethylamino)ethyl)(methyl)amino)benzonitrile]	> 75	–
COc1ccc(C(c2ccc(OC)cc2)N2CCN(Cc3cc(N4CCCN(C)CC4)ccc3C#N)CC2)cc1 [Compound 75, 2-((4-(bis(4-methoxyphenyl)methyl)piperazin-1-yl)methyl)-4-(4-methyl-1,4-diazepan-1-yl)benzonitrile]	> 75	–
CN1CCCN(c2ccc(C#N)c(CN3CCN(C(c4ccc(F)cc4)c4ccc(F)cc4)CC3)c2)CC1 [Compound 76, 2-((4-(bis(4-fluorophenyl)methyl)piperazin-1-yl)methyl)-4-(4-methyl-1,4-diazepan-1-yl)benzonitrile]	> 75	–
CN1CCCN(c2ccc(C#N)c(CN3CCN(C(c4ccc(Cl)cc4)c4ccc(Cl)cc4)CC3)c2)CC1 [Compound 77, 2-((4-(bis(4-chlorophenyl)methyl)piperazin-1-yl)methyl)-4-(4-methyl-1,4-diazepan-1-yl)benzonitrile]	> 75	–
CN(CCn1ccnc1)c1ccc(C#N)c(CN2CCN(C(c3ccc(Cl)cc3)c3ccc(Cl)cc3)CC2)c1 [Compound 78, 4-((2-(1H-imidazol-1-yl)ethyl)(methyl)amino)-2-((4-(bis(4-chlorophenyl)methyl)piperazin-1-yl)methyl)benzonitrile]	> 75	–
CN(C)CCN(C)c1ccc(C#N)c(CN2CCN(C(c3ccncc3)c3ccncc3)CC2)c1 [Compound 79, 2-((4-(di(pyridin-4-yl)methyl)piperazin-1-yl)methyl)-4-((2-(dimethylamino)ethyl)(methyl)amino)benzonitrile]	50 to 75	–
CN1CCN(c2ccc(C#N)c(CN3CCN(C(c4ccc(Cl)cc4)c4ccc(Cl)cc4)CC3)c2)CC1 [Compound 80, 2-((4-(bis(4-chlorophenyl)methyl)piperazin-1-yl)methyl)-4-(4-methylpiperazin-1-yl)benzonitrile]	> 75	–
CC(C)c1ccc(C(c2ccc(C(C)C)cc2)N2CCN(Cc3cc(N(C)CCN(C)C)ccc3C#N)CC2)cc1 [Compound 81, 2-((4-(bis(4-isopropylphenyl)methyl)piperazin-1-yl)methyl)-4-((2-(dimethylamino)ethyl)(methyl)amino)benzonitrile]	> 75	–
CN(C)CCN(C)c1ccc(C#N)c(CN2CCN(C(c3ccc(C(C)(C)C)cc3)c3ccc(C(C)(C)C)cc3)CC2)c1 [Compound 82, 2-((4-(bis(4-tert-butylphenyl)methyl)piperazin-1-yl)methyl)-4-((2-(dimethylamino)ethyl)(methyl)amino)benzonitrile]	> 75	–
CN(C)CCN(C)c1ccc(C#N)c(CN2CCN(C(c3ccc(Br)cc3)c3ccc(Br)cc3)CC2)c1 [Compound 83, 2-((4-(bis(4-bromophenyl)methyl)piperazin-1-yl)methyl)-4-((2-(dimethylamino)ethyl)(methyl)amino)benzonitrile]	> 75	–
CN(C)CCN(C)c1ccc(C#N)c(CN2CCN(C(c3ccc(C4CC4)cc3)c3ccc(C4CC4)cc3)CC2)c1 [Compound 84, 2-((4-(bis(4-cyclopropylphenyl)methyl)piperazin-1-yl)methyl)-4-((2-(dimethylamino)ethyl)(methyl)amino)benzonitrile]	> 75	–
